# Results as given in PMC13198257, “An aerosolized dual-action autotaxin inhibitor-PPARγ agonist for the treatment of pulmonary fibrosis” (Cell Reports Medicine, 2026).
# Test system: lung gene expression
# Test: RNA sequencing of lung tissue (BLM/EL244 vs BLM)
# Assay type: in vivo, mouse
# Conditions: BLM/EL244 vs BLM, lung tissue
# Method: RNA quality was assessed using an Agilent TapeStation 4150 with the High Sensitivity […] ScreenTape (Agilent), according to the manufacturer’s protocols. For library preparation, the QuantSeq 3’mRNA-Seq Library Prep Kit (Lexogen) was used according to manufacturer’s instructions. Briefly, 500 ng of RNA from each sample was used for first-strand synthesis, followed by RNA template removal, and second-strand synthesis initiated by random primers. In-line barcodes were introduced at this step, and this was followed by magnetic bead-based purification. The resulting libraries were amplified for 15 cycles and re-purified, with quantity and quality assessed on a Qubit 4 Fluorometer with the Invitrogen Qubit dsDNA HS Assay and an Agilent Tapestation 4150 with the High Sensitivity D1000 assay kit, respectively. The quantified libraries were pooled equimolarly; 50ng of total library mix was used for Adapter Conversion PCR Amplification using the Universal Library Conversion Kit (App-A), Version: V1.0 (MGI Tech Co., Ltd.), according to the manufacturer’s instructions.
# The quantity and quality of the purified adapter conversion PCR (AC-PCR) product were evaluated on a Qubit 4 Fluorometer with the Invitrogen Qubit dsDNA HS Assay and on an Agilent Tapestation 4150 with the High Sensitivity D1000 assay kit, respectively. This was followed by DNA denaturation, Single-Strand Circularisation, Enzymatic Digestion, Enzymatic Digestion Product Cleanup and Quality Control steps on 1 pmol of AC-PCR product, according to the Universal Library Conversion Kit (App-A) User Manual (Version: A3).
# Finally, 60 fmol of ssCirDNA were used for DNB preparation and sequencing on a DNBSEQ-G400 platform at the BSRC Alexander Fleming Genomics Facility, using a G400 App-A FCS SE100 High-throughput Sequencing Set (MGI Tech Co., Ltd.), according to the manufacturer’s instructions.
# Alignment of the FASTQ files was performed against the mouse genome build mm10 using a custom Bash script.[143] Read counting on the 3′ UTRs and differential expression analysis were conducted using the metaseqR2 bioconductor package.[144] Genes corresponding to the following biotypes were excluded: polymorphic_pseudogene, processed_transcript, pseudogene, IG_V_pseudogene, misc_RNA, IG_C_gene, IG_J_gene, IG_D_gene, IG_LV_gene, TR_V_gene, TR_V_pseudogene, TEC, and processed_pseudogene. Gene counts were normalized with DESEQ[145] through metaseqR2. Genes with more than 10 counts in at least 50% of the samples were kept for further processing. For differential expression analysis, the PANDORA algorithm[146] was used to estimate a meta p-value integrating the results from the DESEQ, DESEQ2,[147] edgeR,[148] limma,[149] NBPSeq,[150] and NOISeq[151] algorithms. All additional parameters were set to default values.
# Pathway enrichment analysis was performed for the Gene Ontology Biological process (BP) and Molecular Function (MF) terms through GeneCodis 4.[152] The volcano plots, scatterplots, Venn diagrams, and dot plots were generated using the ggplot2 Bioconductor package.
smiles,measurement,value
"O=C1NC(=O)C(Cc2ccc(OCCC3CCN(C(=O)OCc4cc(Cl)cc(Cl)c4)CC3)cc2)S1 (stereo not shown) [EL244, 3,5-dichlorobenzyl 4-(2-(4-((2,4-dioxothiazolidin-5-yl)methyl)phenoxy)ethyl)piperidine-1-carboxylate]",1810020O05Rik log2 nFC,1.58
same,1810020O05Rik nFC,3.00
same,2410004I01Rik log2 nFC,1.80
same,2410004I01Rik nFC,3.47
same,9130230L23Rik log2 nFC,1.34
same,9130230L23Rik nFC,2.53
same,9330159F19Rik log2 nFC,1.78
same,9330159F19Rik nFC,3.43
same,9530026P05Rik log2 nFC,3.17
same,9530026P05Rik nFC,9.00
same,A3galt2 log2 nFC,2.32
same,A3galt2 nFC,5.00
same,Acaa1b log2 nFC,1.43
same,Acaa1b nFC,2.69
same,Acot1 log2 nFC,1.08
same,Acot1 nFC,2.11
same,Acoxl log2 nFC,1.23
same,Acoxl nFC,2.35
same,Actc1 log2 nFC,1.28
same,Actc1 nFC,2.42
same,Adam3 log2 nFC,1.67
same,Adam3 nFC,3.18
same,Alas2 log2 nFC,1.58
same,Alas2 nFC,2.99
same,Ankrd63 log2 nFC,1.34
same,Ankrd63 nFC,2.54
same,Aqp9 log2 nFC,1.66
same,Aqp9 nFC,3.15
same,Arhgap28 log2 nFC,1.14
same,Arhgap28 nFC,2.21
same,Arl4d log2 nFC,1.15
same,Arl4d nFC,2.23
same,Arrdc2 log2 nFC,1.24
same,Arrdc2 nFC,2.36
same,Asgr1 log2 nFC,1.80
same,Asgr1 nFC,3.49
same,Baiap3 log2 nFC,1.24
same,Baiap3 nFC,2.36
same,Bbof1 log2 nFC,1.11
same,Bbof1 nFC,2.15
same,Bex2 log2 nFC,1.46
same,Bex2 nFC,2.76
same,Bpifa1 log2 nFC,1.12
same,Bpifa1 nFC,2.18
same,C130080G10Rik log2 nFC,3.58
same,C130080G10Rik nFC,12.00
same,Car3 log2 nFC,1.57
same,Car3 nFC,2.96
same,Casq2 log2 nFC,2.36
same,Casq2 nFC,5.15
same,Cbs log2 nFC,1.38
same,Cbs nFC,2.61
same,Ccdc81 log2 nFC,1.15
same,Ccdc81 nFC,2.23
same,Cd300lg log2 nFC,1.18
same,Cd300lg nFC,2.27
same,Chia1 log2 nFC,1.16
same,Chia1 nFC,2.24
same,Chrdl1 log2 nFC,1.39
same,Chrdl1 nFC,2.62
same,Cidec log2 nFC,1.57
same,Cidec nFC,2.96
same,Ckm log2 nFC,2.32
same,Ckm nFC,5.00
same,Ckmt2 log2 nFC,2.73
same,Ckmt2 nFC,6.63
same,Colq log2 nFC,1.81
same,Colq nFC,3.52
same,Cox6a2 log2 nFC,1.42
same,Cox6a2 nFC,2.68
same,Crtc2 log2 nFC,1.47
same,Crtc2 nFC,2.76
same,Csf3r log2 nFC,1.69
same,Csf3r nFC,3.22
same,Csrp3 log2 nFC,2.07
same,Csrp3 nFC,4.19
same,Cst8 log2 nFC,1.41
same,Cst8 nFC,2.66
same,Cxcl5 log2 nFC,1.80
same,Cxcl5 nFC,3.49
same,Cxcr2 log2 nFC,1.19
same,Cxcr2 nFC,2.28
same,Cyp2a5 log2 nFC,1.66
same,Cyp2a5 nFC,3.15
same,Cyp4b1 log2 nFC,1.18
same,Cyp4b1 nFC,2.26
same,Cytl1 log2 nFC,1.67
same,Cytl1 nFC,3.18
same,D630024D03Rik log2 nFC,1.60
same,D630024D03Rik nFC,3.03
same,Dpysl5 log2 nFC,1.90
same,Dpysl5 nFC,3.73
same,Ear1 log2 nFC,1.11
same,Ear1 nFC,2.16
same,Eml5 log2 nFC,1.41
same,Eml5 nFC,2.65
same,Esm1 log2 nFC,1.28
same,Esm1 nFC,2.43
same,Fabp12 log2 nFC,1.43
same,Fabp12 nFC,2.69
same,Faim2 log2 nFC,2.03
same,Faim2 nFC,4.10
same,Fam71f2 log2 nFC,1.96
same,Fam71f2 nFC,3.88
same,Fosb log2 nFC,2.38
same,Fosb nFC,5.20
same,Ggt1 log2 nFC,1.91
same,Ggt1 nFC,3.77
same,Gm867 log2 nFC,2.18
same,Gm867 nFC,4.53
same,Gm4956 log2 nFC,1.08
same,Gm4956 nFC,2.12
same,Gm9780 log2 nFC,2.06
same,Gm9780 nFC,4.18
same,Gm14964 log2 nFC,1.87
same,Gm14964 nFC,3.65
same,Gm20186 log2 nFC,1.31
same,Gm20186 nFC,2.48
same,Gm42722 log2 nFC,1.79
same,Gm42722 nFC,3.46
same,Gm49353 log2 nFC,2.21
same,Gm49353 nFC,4.62
same,Gnmt log2 nFC,1.14
same,Gnmt nFC,2.20
same,Gpat3 log2 nFC,1.34
same,Gpat3 nFC,2.54
same,Gria1 log2 nFC,1.61
same,Gria1 nFC,3.05
same,Gsta3 log2 nFC,1.10
same,Gsta3 nFC,2.15
same,Gzma log2 nFC,1.70
same,Gzma nFC,3.26
same,Hba-a1 log2 nFC,1.21
same,Hba-a1 nFC,2.32
same,Hba-a2 log2 nFC,1.14
same,Hba-a2 nFC,2.21
same,Hbb-bs log2 nFC,1.10
same,Hbb-bs nFC,2.15
same,Hbb-bt log2 nFC,1.09
same,Hbb-bt nFC,2.13
same,Hhatl log2 nFC,2.05
same,Hhatl nFC,4.14
same,Hpgd log2 nFC,1.63
same,Hpgd nFC,3.10
same,Igfbp3 log2 nFC,1.75
same,Igfbp3 nFC,3.37
same,Igfbp6 log2 nFC,1.68
same,Igfbp6 nFC,3.21
same,Inmt log2 nFC,1.34
same,Inmt nFC,2.54
same,Itga2b log2 nFC,1.10
same,Itga2b nFC,2.15
same,Kcne2 log2 nFC,1.32
same,Kcne2 nFC,2.50
same,Klf15 log2 nFC,1.42
same,Klf15 nFC,2.67
same,Klrc1 log2 nFC,1.38
same,Klrc1 nFC,2.61
same,Krt79 log2 nFC,1.75
same,Krt79 nFC,3.36
same,Ldb3 log2 nFC,1.52
same,Ldb3 nFC,2.86
same,Lrat log2 nFC,1.15
same,Lrat nFC,2.22
same,Mb log2 nFC,2.27
same,Mb nFC,4.81
same,Mir6979 log2 nFC,1.18
same,Mir6979 nFC,2.26
same,Mmp9 log2 nFC,1.20
same,Mmp9 nFC,2.30
same,Mpp3 log2 nFC,1.65
same,Mpp3 nFC,3.14
same,Ms4a4d log2 nFC,1.15
same,Ms4a4d nFC,2.21
same,Mybpc3 log2 nFC,2.06
same,Mybpc3 nFC,4.18
same,Mybphl log2 nFC,2.33
same,Mybphl nFC,5.04
same,Myh6 log2 nFC,2.62
same,Myh6 nFC,6.14
same,Myh7 log2 nFC,2.22
same,Myh7 nFC,4.68
same,Myl4 log2 nFC,1.94
same,Myl4 nFC,3.85
same,Myl7 log2 nFC,1.90
same,Myl7 nFC,3.73
same,Mylk3 log2 nFC,2.03
same,Mylk3 nFC,4.08
same,Myom2 log2 nFC,1.87
same,Myom2 nFC,3.67
same,Ngp log2 nFC,2.72
same,Ngp nFC,6.57
same,Nhlrc1 log2 nFC,1.34
same,Nhlrc1 nFC,2.53
same,Npr3 log2 nFC,1.53
same,Npr3 nFC,2.88
same,Nr4a3 log2 nFC,1.63
same,Nr4a3 nFC,3.09
same,Nrn1 log2 nFC,1.84
same,Nrn1 nFC,3.59
same,Numb log2 nFC,1.49
same,Numb nFC,2.80
same,Pdk4 log2 nFC,1.64
same,Pdk4 nFC,3.11
same,Phf24 log2 nFC,1.57
same,Phf24 nFC,2.97
same,Pln log2 nFC,2.30
same,Pln nFC,4.92
same,Pmvk log2 nFC,1.09
same,Pmvk nFC,2.13
same,Ppbp log2 nFC,1.09
same,Ppbp nFC,2.13
same,Ppp4r4 log2 nFC,1.26
same,Ppp4r4 nFC,2.40
same,Pram1 log2 nFC,1.64
same,Pram1 nFC,3.12
same,Prf1 log2 nFC,1.34
same,Prf1 nFC,2.53
same,Prmt8 log2 nFC,1.27
same,Prmt8 nFC,2.41
same,Pwwp3b log2 nFC,1.22
same,Pwwp3b nFC,2.33
same,Rab44 log2 nFC,1.61
same,Rab44 nFC,3.05
same,Rassf10 log2 nFC,1.19
same,Rassf10 nFC,2.28
same,Rbfox3 log2 nFC,1.26
same,Rbfox3 nFC,2.40
same,Rbm24 log2 nFC,1.20
